Here are results for two compounds from patent US5066676A, “Sulfonamido derivative inhibiting the aldose reductase enzyme system and pharmaceutical compositions containing them” (Laboratori Baldacci SpA, priority 1987, dated 1991).

In one data set the target is T1, aldose reductase (Bos taurus, UniProt P16116).
T1 construct: 4 bovine crystalline lenses (8 g) are homogenized by means of Potter in ice bath; from tissue; host or cells: bovine crystalline lens
The experiment in a line: In vitro inhibition of aldose reductase activity of raw extracts from bovine crystalline lens. The format is biochemical. Conditions: for inhibiting action of the aldose reductase activity (in words): bovine lens extract; for IC50: glyceraldehyde substrate, NADPH, pH 6.8, 37° C., read-out: IC50 on the aldose reductase activity of raw extracts originating from bovine crystalline lens. Here is the method:
"In vitro" tests have been carried out to evalute the inhibition of the aldose reductase activity, prepared from the extract of bovine crystalline lenses.
PREPARATION OF THE RAW EXTRACTS
4 bovine crystalline lenses (8 g) are homogenized by means of Potter in ice bath with 40 ml of 50 mM phosphate buffer, pH 6.8, containing 2-mercaptoethanol pH ([…]). After centrifugation (12.000×g -20 min-4° C.) the supernatant is brought to 40% saturation with an ammonium sulphate and centrifugated again (14.000×g). The supernatant is then brought to the 80% saturation ((NH4)2 SO4) and, after centrifugation for 20 minutes and at 14.000×g, the sedimented matter is recovered and suspended in 7 ml of phosphate buffer. The enzymatic preparation is dialyzed by ultrafiltration with AMICON ultrafiltration cell.
DOSAGE OF THE ENZYMATIC ACTIVITY
The reference cuvette contains all the several substances apart from the substrate.

A further data set can be described thus: Acute toxicity: mice. Conditions: in vivo, mouse (Swiss), read-out: % Death. The procedure:
(§1) The toxicity tests after only one administration have been carried out on two animal species (mice and rats), using two administration routes (os, iv).
For these tests Swiss mice have been used, of both sexes, having average weight 20 g, fasted after 18 hours and administered with water ad libitum. The animals were maintained under standard environment conditions (temperature: 20°-22° C. and moisture 50%).
(§2) The compounds have been administered by gastric probe, suspended in Methocell or by injection (iv) dissolved in physiological solution with the addition of sodium bicarbonate.
(§3) The animals have been kept under observation for 15 days. The controls have been carried out several times in the first days and twice a day in the next days. In the table 1 the conditions used and the results obtained are reported.

Another data set is described as follows: Acute toxicity: rat. Conditions: in vivo, rat (Wistar), 20 ml/kg, read-out: % Death.
From the text: as §1, §2, §3
Wistar rats, of both sexes have been used of average weight of 120 g, fasted after 18 hours and with water at libitum. The conditions of stalling and the administration ways were the same as those reported in the preceeding paragraph (acute toxicity: mouse).

Broadly, the IC50 is the concentration at which inhibition is half-maximal. On to `CN(CC(=O)O)S(=O)(=O)c1ccc2oc3ccc(S(=O)(=O)N(C)CC(=O)O)cc3c(=O)c2c1` [ARI 9, 2,7-bis (N-methyl-N-carboxymethyl) sulfamoylxanthone], for which, on aldose reductase, the “inhibiting action of the aldose reductase activity (in words)” value is “higher activity, with respect to the of sorbinil and of ARI 1”; the IC50 was determined as 1000 nM.
Turning to `CN(CC(=O)O)S(=O)(=O)c1ccc2oc3ccc(F)cc3c(=O)c2c1` [ARI 8, 7-fluoro-2-(N-methyl-N-carboxymethyl)sulfamoylxanthone], the mortality at 360 h in the data set “Acute toxicity: mice” (po, 5000 mg/kg/os) is 10%; in the data set “Acute toxicity: mice” (400 mg/kg/iv) it was 0%; in the data set “Acute toxicity: rat” (po, 5000 mg/kg/os), 30%; in the data set “Acute toxicity: rat” (500 mg/kg/iv) it was 40%; in “Acute toxicity: rat” (400 (unit and route not given)) it was 0%. Moreover, the “inhibiting action of the aldose reductase activity (in words)” value at aldose reductase was “higher activity, with respect to the of sorbinil and of ARI 1”. The IC50 on aldose reductase amounted to 1000 nM.
